# From paper PMC5549482, “Activation of Endocannabinoid Receptor 2 as a Mechanism of Propofol Pretreatment-Induced Cardioprotection against Ischemia-Reperfusion Injury in Rats” (Oxidative Medicine and Cellular Longevity, 2017)
# Target: T1, fatty acid amide hydrolase (FAAH) (Homo sapiens, UniProt O00519)
# T1 construct: human recombinant FAAH
# T1 sequence (O00519 1-579): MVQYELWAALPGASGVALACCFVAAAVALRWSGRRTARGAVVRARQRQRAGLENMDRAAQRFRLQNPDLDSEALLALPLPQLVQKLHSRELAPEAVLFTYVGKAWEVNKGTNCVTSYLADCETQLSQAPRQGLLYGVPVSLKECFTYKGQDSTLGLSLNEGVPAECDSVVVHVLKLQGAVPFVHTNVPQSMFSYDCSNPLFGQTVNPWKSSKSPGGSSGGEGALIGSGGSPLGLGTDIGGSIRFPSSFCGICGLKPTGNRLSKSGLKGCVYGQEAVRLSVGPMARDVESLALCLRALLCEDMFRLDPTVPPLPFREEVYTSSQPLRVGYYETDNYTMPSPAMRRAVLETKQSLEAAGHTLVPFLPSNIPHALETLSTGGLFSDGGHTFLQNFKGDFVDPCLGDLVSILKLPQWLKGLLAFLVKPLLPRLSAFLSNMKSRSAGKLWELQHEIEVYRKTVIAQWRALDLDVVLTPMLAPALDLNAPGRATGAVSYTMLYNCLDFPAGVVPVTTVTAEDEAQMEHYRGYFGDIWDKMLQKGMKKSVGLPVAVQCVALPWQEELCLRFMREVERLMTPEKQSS
# Experiment: fluorescence FAAH inhibitor screening kit (Cayman), AMC arachidonoyl amide substrate, […] propofol
# Format: biochemical
structure (smiles),measurement,value
CC(C)c1cccc(C(C)C)c1O [propofol],IC50,~28 µM
